Laboratory results from US12258327B2, “5-membered heteroaryl-containing aminopyridine compounds as EGFR inhibitors” (YUHAN CORPORATION, priority 2021, dated 2025).
Where two headings read alike, the source gives them in different places.

Assays:
[1] = target: EGFR L858R/C797S (Homo sapiens, UniProt P00533, C797S/L858R); test: Biochemical EGFR kinase assay (Lance Ultra TR-FRET), double mutant L858R/C797S
Summary of the method: (§1)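 Step 1: compound in kinase buffer, 0.003–10 μM. Step 2: kinase reaction 1 h at room temperature. Step 4: TR-FRET read at 615/665 nm; IC50 calculated.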

[2] = target: EGFR del19/C797S (Homo sapiens, UniProt P00533, C797S/DEL746-750); test: Biochemical EGFR kinase assay (Lance Ultra TR-FRET), double mutant del19/C797S
Summary of the method: as §1

[3] = target: EGFR wildtype (WT) (Homo sapiens, UniProt P00533); test: Biochemical EGFR kinase assay (Lance Ultra TR-FRET), wildtype
Summary of the method: as §1

[4] = target: EGFR L858R/T790M/C797S (Homo sapiens, UniProt P00533, C797S/L858R/T790M); test: Biochemical EGFR kinase assay (Lance Ultra TR-FRET), triple mutant L858R/T790M/C797S
Summary of the method: as §1

[5] = target: EGFR del19/T790M/C797S (Homo sapiens, UniProt P00533, C797S/DEL746-750/T790M); test: Biochemical EGFR kinase assay (Lance Ultra TR-FRET), triple mutant del19/T790M/C797S
Summary of the method: as §1

[6] = Km ATP, read-out: IC50 L858R/C797S (nM) Km ATP
[7] = Km ATP, read-out: IC50 del19/C797S (nM) Km ATP
[8] = Km ATP, read-out: IC50 WT (nM) Km ATP
[9] = Km ATP, read-out: IC50 L858R/T790M/C797S (nM) Km ATP
[10] = Km ATP, read-out: IC50 del19/T790M/C797S (nM) Km ATP
[11] = IC50 L858R/C797S (nM) 100 μM ATP, 100 μM ATP
[12] = IC50 del19/C797S (nM) 100 μM ATP, 100 μM ATP
[13] = IC50 WT (nM) 100 μM ATP, 100 μM ATP
[14] = IC50 L858R/T790M/C797S (nM) 100 μM ATP, 100 μM ATP
[15] = IC50 del19/T790M/C797S (nM) 100 μM ATP, 100 μM ATP

EGFR L858R/T790M/C797S, sequence (P00533 25-1210 T790M/C797S/L858R): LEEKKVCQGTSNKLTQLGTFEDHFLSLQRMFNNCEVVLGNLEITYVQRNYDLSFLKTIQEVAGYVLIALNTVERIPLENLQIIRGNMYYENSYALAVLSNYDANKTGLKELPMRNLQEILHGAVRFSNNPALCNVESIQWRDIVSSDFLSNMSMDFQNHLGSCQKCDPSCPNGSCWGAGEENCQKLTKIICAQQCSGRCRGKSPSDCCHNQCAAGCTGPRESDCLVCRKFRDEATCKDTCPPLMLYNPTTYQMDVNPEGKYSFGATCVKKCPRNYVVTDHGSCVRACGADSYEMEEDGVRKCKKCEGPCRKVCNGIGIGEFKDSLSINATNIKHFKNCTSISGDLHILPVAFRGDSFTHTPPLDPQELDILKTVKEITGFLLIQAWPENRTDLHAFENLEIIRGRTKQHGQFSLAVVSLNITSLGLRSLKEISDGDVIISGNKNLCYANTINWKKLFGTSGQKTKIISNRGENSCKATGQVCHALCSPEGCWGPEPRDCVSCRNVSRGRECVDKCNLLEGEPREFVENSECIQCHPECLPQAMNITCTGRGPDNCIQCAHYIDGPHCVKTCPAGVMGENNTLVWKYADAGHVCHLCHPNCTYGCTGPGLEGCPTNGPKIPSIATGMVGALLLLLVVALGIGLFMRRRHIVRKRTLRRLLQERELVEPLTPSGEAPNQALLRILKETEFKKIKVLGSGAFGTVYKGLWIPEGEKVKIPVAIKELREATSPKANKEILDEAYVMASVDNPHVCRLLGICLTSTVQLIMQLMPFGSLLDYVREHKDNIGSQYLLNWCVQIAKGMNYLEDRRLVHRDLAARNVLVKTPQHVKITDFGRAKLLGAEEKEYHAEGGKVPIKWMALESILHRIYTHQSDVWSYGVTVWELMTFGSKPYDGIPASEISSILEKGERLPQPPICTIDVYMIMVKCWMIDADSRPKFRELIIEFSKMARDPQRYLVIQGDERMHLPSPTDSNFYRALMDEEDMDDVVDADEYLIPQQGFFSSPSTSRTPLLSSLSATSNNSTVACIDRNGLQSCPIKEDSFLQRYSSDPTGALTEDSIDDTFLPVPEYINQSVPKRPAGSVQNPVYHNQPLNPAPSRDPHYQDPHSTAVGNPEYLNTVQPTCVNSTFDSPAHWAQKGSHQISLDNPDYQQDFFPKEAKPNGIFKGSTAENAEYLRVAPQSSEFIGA
EGFR del19/T790M/C797S, sequence (P00533 with tags, fused parts or gaps DEL746-750/T790M/C797S): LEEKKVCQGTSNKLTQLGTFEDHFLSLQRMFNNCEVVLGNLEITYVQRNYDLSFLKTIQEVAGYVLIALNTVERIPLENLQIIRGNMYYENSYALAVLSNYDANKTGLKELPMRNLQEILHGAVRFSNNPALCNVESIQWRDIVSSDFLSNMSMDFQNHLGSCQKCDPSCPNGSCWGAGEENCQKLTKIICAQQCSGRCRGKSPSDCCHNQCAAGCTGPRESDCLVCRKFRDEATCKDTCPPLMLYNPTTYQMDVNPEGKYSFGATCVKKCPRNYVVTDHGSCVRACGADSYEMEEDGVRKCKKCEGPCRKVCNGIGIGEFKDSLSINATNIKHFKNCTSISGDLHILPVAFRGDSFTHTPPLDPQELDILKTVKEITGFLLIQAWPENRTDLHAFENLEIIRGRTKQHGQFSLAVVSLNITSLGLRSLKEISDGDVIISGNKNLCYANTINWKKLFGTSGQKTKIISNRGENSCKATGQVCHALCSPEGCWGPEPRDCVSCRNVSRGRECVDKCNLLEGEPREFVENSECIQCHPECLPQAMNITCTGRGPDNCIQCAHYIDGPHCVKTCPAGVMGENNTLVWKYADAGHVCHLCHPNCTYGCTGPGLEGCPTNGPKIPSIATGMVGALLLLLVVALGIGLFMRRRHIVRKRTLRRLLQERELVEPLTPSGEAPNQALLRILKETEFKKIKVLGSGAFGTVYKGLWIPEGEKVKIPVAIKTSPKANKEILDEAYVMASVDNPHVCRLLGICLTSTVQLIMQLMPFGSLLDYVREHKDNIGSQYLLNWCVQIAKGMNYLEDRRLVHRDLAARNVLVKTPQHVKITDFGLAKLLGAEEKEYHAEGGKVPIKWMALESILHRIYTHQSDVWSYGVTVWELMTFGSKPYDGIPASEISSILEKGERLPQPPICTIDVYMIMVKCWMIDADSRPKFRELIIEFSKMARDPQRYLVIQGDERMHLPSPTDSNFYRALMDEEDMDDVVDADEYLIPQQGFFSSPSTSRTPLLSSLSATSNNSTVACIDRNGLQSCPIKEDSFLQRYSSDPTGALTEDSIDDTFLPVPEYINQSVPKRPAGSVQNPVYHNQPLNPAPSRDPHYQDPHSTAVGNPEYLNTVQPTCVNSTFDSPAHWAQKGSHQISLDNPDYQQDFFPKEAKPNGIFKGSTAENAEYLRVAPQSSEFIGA
EGFR del19/C797S, sequence (P00533 with tags, fused parts or gaps DEL746-750/C797S): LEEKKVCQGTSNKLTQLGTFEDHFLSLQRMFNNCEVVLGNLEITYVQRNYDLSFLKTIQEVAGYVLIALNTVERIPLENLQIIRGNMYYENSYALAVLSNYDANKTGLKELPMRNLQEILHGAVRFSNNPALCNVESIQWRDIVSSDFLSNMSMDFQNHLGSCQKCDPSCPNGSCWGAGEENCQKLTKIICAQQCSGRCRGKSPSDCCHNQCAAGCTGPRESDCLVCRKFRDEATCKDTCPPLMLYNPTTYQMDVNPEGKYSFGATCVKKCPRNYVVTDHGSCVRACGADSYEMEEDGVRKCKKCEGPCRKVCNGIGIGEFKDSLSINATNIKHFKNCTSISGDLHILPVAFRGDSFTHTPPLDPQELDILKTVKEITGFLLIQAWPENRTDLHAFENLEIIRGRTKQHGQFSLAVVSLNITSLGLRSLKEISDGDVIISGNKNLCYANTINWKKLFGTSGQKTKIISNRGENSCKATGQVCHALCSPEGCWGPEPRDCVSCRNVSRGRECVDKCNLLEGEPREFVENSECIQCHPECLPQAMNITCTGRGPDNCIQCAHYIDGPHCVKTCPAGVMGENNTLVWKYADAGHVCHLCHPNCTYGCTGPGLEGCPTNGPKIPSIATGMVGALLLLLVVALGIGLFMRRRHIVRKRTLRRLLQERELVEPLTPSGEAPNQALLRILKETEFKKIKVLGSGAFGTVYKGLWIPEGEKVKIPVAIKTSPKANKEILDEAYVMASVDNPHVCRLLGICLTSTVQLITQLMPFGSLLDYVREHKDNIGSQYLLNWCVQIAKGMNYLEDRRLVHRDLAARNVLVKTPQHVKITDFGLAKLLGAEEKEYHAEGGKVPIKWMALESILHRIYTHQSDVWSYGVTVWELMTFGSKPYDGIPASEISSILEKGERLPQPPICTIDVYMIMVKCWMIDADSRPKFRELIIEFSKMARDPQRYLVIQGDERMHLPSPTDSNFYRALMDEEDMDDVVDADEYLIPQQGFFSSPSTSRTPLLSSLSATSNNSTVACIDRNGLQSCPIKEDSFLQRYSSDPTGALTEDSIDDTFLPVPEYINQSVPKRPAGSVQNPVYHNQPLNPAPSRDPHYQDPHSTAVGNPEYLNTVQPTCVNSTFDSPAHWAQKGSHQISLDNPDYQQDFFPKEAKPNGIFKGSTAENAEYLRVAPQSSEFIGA
EGFR L858R/C797S, sequence (P00533 25-1210 C797S/L858R): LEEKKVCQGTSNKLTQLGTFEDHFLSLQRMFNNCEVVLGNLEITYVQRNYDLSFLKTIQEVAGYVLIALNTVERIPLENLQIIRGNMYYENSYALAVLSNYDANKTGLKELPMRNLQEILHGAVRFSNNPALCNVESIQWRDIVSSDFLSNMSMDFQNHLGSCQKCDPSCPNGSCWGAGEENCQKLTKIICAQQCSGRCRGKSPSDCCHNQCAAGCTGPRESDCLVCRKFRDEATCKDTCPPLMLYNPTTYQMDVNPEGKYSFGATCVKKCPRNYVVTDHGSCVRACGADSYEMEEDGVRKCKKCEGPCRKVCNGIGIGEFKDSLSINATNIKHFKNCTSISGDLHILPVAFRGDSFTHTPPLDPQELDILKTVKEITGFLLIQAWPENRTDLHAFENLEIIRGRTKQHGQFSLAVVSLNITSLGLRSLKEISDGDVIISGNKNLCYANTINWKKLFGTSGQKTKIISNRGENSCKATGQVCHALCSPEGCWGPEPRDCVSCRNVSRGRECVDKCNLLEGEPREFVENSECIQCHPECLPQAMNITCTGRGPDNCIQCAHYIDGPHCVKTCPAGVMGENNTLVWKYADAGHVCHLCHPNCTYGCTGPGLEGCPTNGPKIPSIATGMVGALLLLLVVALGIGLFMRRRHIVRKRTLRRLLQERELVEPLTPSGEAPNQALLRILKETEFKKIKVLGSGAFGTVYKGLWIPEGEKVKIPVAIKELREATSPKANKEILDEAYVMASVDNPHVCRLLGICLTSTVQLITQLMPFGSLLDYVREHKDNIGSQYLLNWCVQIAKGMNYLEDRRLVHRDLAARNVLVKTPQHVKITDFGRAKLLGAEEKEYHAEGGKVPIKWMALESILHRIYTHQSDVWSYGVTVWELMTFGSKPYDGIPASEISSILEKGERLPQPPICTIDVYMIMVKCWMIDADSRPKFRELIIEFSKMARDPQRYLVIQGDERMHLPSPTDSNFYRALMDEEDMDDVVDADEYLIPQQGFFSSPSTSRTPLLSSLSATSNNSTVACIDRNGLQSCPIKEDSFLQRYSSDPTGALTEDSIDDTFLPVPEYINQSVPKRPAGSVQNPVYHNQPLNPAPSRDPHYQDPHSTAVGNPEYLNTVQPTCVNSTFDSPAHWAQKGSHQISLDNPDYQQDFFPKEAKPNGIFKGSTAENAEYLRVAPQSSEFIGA

Structure (SMILES) | IC50 [1, 6] [nM] | IC50 [2, 7] [nM] | IC50 [3, 8] [nM] | IC50 [4, 9] [nM] | IC50 [5, 10] [nM] | IC50 [1, 11] [nM] | IC50 [2, 12] [nM] | IC50 [3, 13] [nM] | IC50 [4, 14] [nM] | IC50 [5, 15] [nM]
O=S(=O)(C1CC1)n1cc(-c2nccc(Nc3cc(N[C@H]4CC[C@@H](F)CC4)c(-c4nc(C(F)F)cs4)cn3)n2)cn1 [Example 164, N^2-(2-(1-(Cyclopropylsulfonyl)-1H-pyrazol-4-yl)pyrimidin-4-yl)-5-(4-(difluoromethyl)thiazol-2-yl)-N^4-((1s,4s)-4-fluorocyclohexyl)pyridine-2,4-diamine] | 135 | 370 | 1210 | 4.8 | 8.8 | – | – | – | – | –
CN1CC(Nc2cc(Nc3ccnc(-c4cnn(S(=O)(=O)C5CC5)c4)n3)ncc2-c2ccn(C(F)F)n2)CCC1=O (stereo not shown) [Example 37, 5-((2-((2-(1-(Cyclopropylsulfonyl)-1H-pyrazol-4-yl)pyrimidin-4-yl)amino)-5-(1-(difluoromethyl)-1H-pyrazol-3-yl)pyridin-4-yl)amino)-1-methylpiperidin-2-one] | 5 | 12.1 | 108 | 0.7 | 1.2 | 264 | 16.6 | > 10000 | 6.6 | 1.4
O=S(=O)(C1CC1)n1cc(-c2nccc(Nc3cc(NC[C@H]4CC[C@@H](O)CC4)c(-c4ccn(C(F)F)n4)cn3)n2)cn1 [Example 30, (1s,4s)-4-(((2-((2-(1-(Cyclopropylsulfonyl)-1H-pyrazol-4-yl)pyrimidin-4-yl)amino)-5-(1-(difluoromethyl)-1H-pyrazol-3-yl)pyridin-4-yl)amino)methyl)cyclohexan-1-ol] | – | 0.5 | 15.4 | 0.3 | 0.6 | 41.3 | 2.2 | > 10000 | 2.8 | 2.4
COCn1ccc(-c2cnc(Nc3ccnc(-c4cnn(S(=O)(=O)C5CC5)c4)n3)cc2N[C@H]2CC[C@@](C)(O)CC2)n1 [Example 294, (1s,4s)-4-((2-((2-(1-(Cyclopropylsulfonyl)-1H-pyrazol-4-yl)pyrimidin-4-yl)amino)-5-(1-(methoxymethyl)-1H-pyrazol-3-yl)pyridin-4-yl)amino)-1-methylcyclohexan-1-ol] | 0.1 | 1 | 0.9 | 0.2 | 0.4 | – | – | – | – | –
CN(C)C[C@H]1C[C@@H](CNc2cc(Nc3ccnc(-c4cnn(S(=O)(=O)C5CC5)c4)n3)ncc2-c2ccn(C(F)F)n2)C1 [Example 203, N^2-(2-(1-(Cyclopropylsulfonyl)-1H-pyrazol-4-yl)pyrimidin-4-yl)-5-(1-(difluoromethyl)-1H-pyrazol-3-yl)-N^4-(((1s,3s)-3-((dimethylamino)methyl)cyclobutyl)methyl)pyridine-2,4-diamine] | – | – | – | – | – | 8.3 | 1.1 | 2970 | 0.2 | 0.1
O=S(=O)(C1CC1)n1cc(-c2nccc(Nc3cc(NC4CCC(F)(F)CC4)c(-c4ccn(C(F)F)n4)cn3)n2)cn1 [Example 215, N^2-(2-(1-(Cyclopropylsulfonyl)-1H-pyrazol-4-yl)pyrimidin-4-yl)-N^4-(4,4-difluorocyclohexyl)-5-(1-(difluoromethyl)-1H-pyrazol-3-yl)pyridine-2,4-diamine] | 32.5 | 70.2 | 434 | 8.6 | 11.9 | – | – | – | – | –
Cn1nc(-c2cnc(Nc3ccnc(-c4cnn(S(=O)(=O)C5CC5)c4)n3)cc2N[C@H]2CC[C@@H](NCCF)CC2)cc1C(F)(F)F [Example 255, N^2-(2-(1-(Cyclopropylsulfonyl)-1H-pyrazol-4-yl)pyrimidin-4-yl)-N^4-((1s,4s)-4-((2-fluoroethyl)amino)cyclohexyl)-5-(1-methyl-5-(trifluoromethyl)-1H-pyrazol-3-yl)pyridine-2,4-diamine] | 5.3 | 1.1 | 8.2 | 0.2 | 0.6 | 25.4 | 2.4 | > 10000 | 1.2 | 0.8
Cn1ccc(-c2cnc(Nc3ccnc(-c4cnn(S(=O)(=O)C5CC5)c4)n3)cc2NCC2CCC(NCCF)CC2)n1 (stereo not shown) [Example 131, N^2-(2-(1-(Cyclopropylsulfonyl)-1H-pyrazol-4-yl)pyrimidin-4-yl)-N^4-((4-((2-fluoroethyl)amino)cyclohexyl)methyl)-5-(1-methyl-1H-pyrazol-3-yl)pyridine-2,4-diamine] | 0.4 | 0.2 | 2.8 | 0.1 | 0.2 | 1.1 | 0.5 | 1540 | 0.3 | 0.3
CC(C)(O)Cn1cc(-c2nccc(Nc3cc(N[C@H]4CC[C@@](C)(O)CC4)c(-c4ccn(C(F)F)n4)cn3)n2)cn1 [Example 142, (1s,4s)-4-((5-(1-(Difluoromethyl)-1H-pyrazol-3-yl)-2-((2-(1-(2-hydroxy-2-methylpropyl)-1H-pyrazol-4-yl)pyrimidin-4-yl)amino)pyridin-4-yl)amino)-1-methylcyclohexan-1-ol] | – | – | 486 | – | – | 37.5 | 114 | > 10000 | 33.8 | 17.6
CC(O)C(C)(C)Nc1cc(Nc2ccnc(-c3cnn(S(=O)(=O)C4CC4)c3)n2)ncc1-c1ccn(C(F)F)n1 (stereo not shown) [Example 7, 3-((2-((2-(1-(Cyclopropylsulfonyl)-1H-pyrazol-4-yl)pyrimidin-4-yl)amino)-5-(1-(difluoromethyl)-1H-pyrazol-3-yl)pyridin-4-yl)amino)-3-methylbutan-2-ol] | – | – | – | – | – | 246 | 281 | > 10000 | 6 | 2.6
O=S(=O)(C1CC1)n1cc(-c2nccc(Nc3cc(N[C@H]4CC[C@](O)(CO)CC4)c(-c4cc5n(n4)CCCC5)cn3)n2)cn1 [Example 275, (1s,4s)-4-((2-((2-(1-(Cyclopropylsulfonyl)-1H-pyrazol-4-yl)pyrimidin-4-yl)amino)-5-(4,5,6,7-tetrahydropyrazolo[1,5-a]pyridin-2-yl)pyridin-4-yl)amino)-1-(hydroxymethyl)cyclohexan-1-ol] | 0.4 | 0.4 | 1.8 | 0.2 | 0.4 | 4.7 | 0.6 | 2940 | 0.5 | 0.6
C[C@]1(O)CCCN(c2cc(Nc3ccnc(-c4cnn(S(=O)(=O)C5CC5)c4)n3)ncc2-c2ccn(C(F)F)n2)C1 [Example 107, (S)-1-(2-((2-(1-(Cyclopropylsulfonyl)-1H-pyrazol-4-yl)pyrimidin-4-yl)amino)-5-(1-(difluoromethyl)-1H-pyrazol-3-yl)pyridin-4-yl)-3-methylpiperidin-3-ol] | – | – | – | – | – | 346 | 113 | > 10000 | 4.6 | 2.7
O=S(=O)(C1CC1)n1cc(-c2nccc(Nc3cc(NC4CCN(CCF)CC4)c(-c4ccn(C(F)F)n4)cn3)n2)cn1 [Example 217, N^2-(2-(1-(Cyclopropylsulfonyl)-1H-pyrazol-4-yl)pyrimidin-4-yl)-5-(1-(difluoromethyl)-1H-pyrazol-3-yl)-N^4-(1-(2-fluoroethyl)piperidin-4-yl)pyridine-2,4-diamine] | 23.7 | 28.7 | 454 | 0.4 | 0.2 | – | – | – | – | –
COCCn1cc(-c2nccc(Nc3cc(N[C@H]4CC[C@@](C)(O)CC4)c(-c4ccn(C(F)F)n4)cn3)n2)cn1 [Example 138, (1s,4s)-4-((5-(1-(Difluoromethyl)-1H-pyrazol-3-yl)-2-((2-(1-(2-methoxyethyl)-1H-pyrazol-4-yl)pyrimidin-4-yl)amino)pyridin-4-yl)amino)-1-methylcyclohexan-1-ol] | 26.9 | 45.1 | 77.7 | 0.1 | 0.2 | 295 | 47.6 | > 10000 | 0.8 | 0.4
Cn1ccc(-c2cnc(Nc3ccnc(-c4cnn(S(=O)(=O)C5CC5)c4)n3)cc2N[C@H]2CC[C@H](CO)CC2)n1 [Example 229, ((1r,4r)-4-((2-((2-(1-(Cyclopropylsulfonyl)-1H-pyrazol-4-yl)pyrimidin-4-yl)amino)-5-(1-methyl-1H-pyrazol-3-yl)pyridin-4-yl)amino)cyclohexyl)methanol] | 1.4 | 0.4 | 10 | 0.1 | – | 43.9 | 0.8 | > 10000 | 1.4 | 0.1
